Assay results published in patent publication US20020035061A1, “COMPOSITIONS AND METHODS FOR TREATING INFECTIONS USING CATIONIC PEPTIDES ALONE OR IN COMBINATION WITH ANTIBIOTICS” (priority 1996, published 2002).
Where two headings read alike, the source gives them in different places.

Experiments:
Format in all cases: cell-based
E. coli = conditions: for Peptide MIC values: agarose dilution
E. faecalis = tested on: E. faecalis
E. faecium = conditions: for Peptide MIC values: agarose dilution
H. influenzae = test: Agarose dilution assay (MIC)
P. aeruginosa = conditions: for Peptide MIC values: agarose dilution
P. vulgaris = test: Agarose dilution assay (MIC); conditions: agarose dilution; P. vulgaris ATCC 13315
S. aureus = conditions: for Peptide MIC values: agarose dilution
S. marcescens = conditions: for Peptide MIC values: agarose dilution
S. pneumoniae = test: Agarose dilution assay (MIC); conditions: for MIC: S. pneumoniae strain SBSPN3; for Peptide MIC values: agarose dilution
bacterial isolates = test: microbe, parasite or virus in culture
[1] = tested on: inherently resistant microorganisms; test: microbe, parasite or virus in culture
[2] = tested on: microorganisms with acquired resistance; test: microbe, parasite or virus in culture
A. calcoaceticus = tested on: A. calcoaceticus
E. cloacae = tested on: E. cloacae
K. pneumoniae = tested on: K. pneumoniae
S. epidermidis = S. epidermidis strain SE010
S. maltophilia = tested on: S. maltophilia
S. pyogenes = test: Agarose dilution assay (MIC); conditions: S. pyogenes strain SPY005
[3] = A. baumannii ABI001, Tobramycin section
[4] = E. coli SBECO2, Mupirocin section
[5] = P. aeruginosa PA022, Tobramycin section
[6] = S. aureus SA025 (also SA025 MRSA)
[7] = peptide + Mupirocin, E. coli SBECO2
[8] = peptide + Tobramycin, A. baumannii ABI001
[9] = peptide + Tobramycin, P. aeruginosa PA022
[10] = E. cloacae 10, Piperacillin section
[11] = P. aeruginosa 7, Piperacillin section
[12] = P. aeruginosa 23, Piperacillin section
[13] = S. maltophilia 2, Piperacillin section
[14] = S. marcescens 1, Piperacillin section
[15] = peptide + Piperacillin, E. cloacae 10
[16] = peptide + Piperacillin, P. aeruginosa 7
[17] = peptide + Piperacillin, P. aeruginosa 23
[18] = peptide + Piperacillin, S. maltophilia 2
[19] = peptide + Piperacillin, S. marcescens 1

ILKKWPWWPWK [MBI 11G13CN]
64 µg/mL: Peptide MIC values (E. coli; E. coli ATCC 25922) | MIC (E. faecalis; E. faecalis strain EFS002) | Peptide MIC values (S. aureus; S. aureus MRSA13) | Peptide MIC Alone (bacterial isolates; E. coli ECO5, Mupirocin section) | Peptide MIC Alone (bacterial isolates; [4]) | Tobramycin MIC + Peptide (bacterial isolates; S. maltophilia SMA029) | Tobramycin MIC + Peptide (bacterial isolates; S. maltophilia SMA030)
8 µg/mL: Peptide MIC values (S. aureus; S. aureus MRSA9) | Peptide MIC + Mupirocin (bacterial isolates; E. coli ECO5) | Peptide MIC + Mupirocin (bacterial isolates; E. coli SBECO2)
0.16: FIC (bacterial isolates; [7])
128 µg/mL: MIC (S. pneumoniae) | Peptide MIC values (S. pneumoniae; S. pneumoniae 406LE8) | Peptide MIC values (S. pneumoniae; S. pneumoniae ATCC 49619) | Peptide MIC Alone (bacterial isolates; [3]) | Peptide MIC Alone [2, 3]
4 µg/mL: MIC (S. aureus; S. aureus strain SA004) | Tobramycin MIC + Peptide (bacterial isolates; A. baumannii ABI001) | Tobramycin MIC + Peptide (bacterial isolates; P. aeruginosa PA022) | Peptide MIC Alone (bacterial isolates; S. aureus SA025 (also SA025 MRSA), Tobramycin section) | Peptide MIC Alone ([1]; S. aureus, Tobramycin section) | Tobramycin MIC + Peptide ([2]; A. baumannii ABI001) | Tobramycin MIC + Peptide ([2]; P. aeruginosa PA022)
1 µg/mL: Peptide MIC values (S. aureus; S. aureus ATCC 29213)
>128 µg/mL: MIC (H. influenzae; H. influenzae strain HIN002) | MIC (P. aeruginosa; P. aeruginosa strain PA004) | Peptide MIC values (P. aeruginosa; P. aeruginosa ATCC 27853) | Peptide MIC values (P. aeruginosa; P. aeruginosa NCTC 10662) | Peptide MIC values (P. vulgaris) | MIC (S. marcescens; S. marcescens strain SBSM1) | Peptide MIC values (S. marcescens; S. marcescens SM76) | Peptide MIC values (S. marcescens; S. marcescens SM82) | Peptide MIC values (S. pneumoniae; S. pneumoniae 60120) | Peptide MIC Alone (bacterial isolates; [5]) | Peptide MIC Alone (bacterial isolates; S. maltophilia SMA029, Tobramycin section) | Peptide MIC Alone (bacterial isolates; S. maltophilia SMA030, Tobramycin section) | Peptide MIC Alone [2, 5]
2 µg/mL: Peptide MIC + Tobramycin (bacterial isolates; [6]) | Peptide MIC + Tobramycin ([1]; S. aureus)
0.50: FIC (bacterial isolates; [8]) | FIC (bacterial isolates; peptide + Tobramycin, S. aureus SA025 (also SA025 MRSA)) | FIC (bacterial isolates; peptide + Tobramycin, S. maltophilia SMA029) | FIC (bacterial isolates; peptide + Tobramycin, S. maltophilia SMA030) | FIC ([1]; peptide + Tobramycin, S. aureus) | FIC [2, 8]
0.125 µg/mL: Tobramycin MIC + Peptide (bacterial isolates; [6]) | Peptide MIC + Tobramycin (bacterial isolates; S. maltophilia SMA029) | Peptide MIC + Tobramycin (bacterial isolates; S. maltophilia SMA030)
32: Peptide MIC ([2]; E. faecium, combination with Mupirocin, in µg/mL)
0.43: FIC (bacterial isolates; peptide + Mupirocin, E. coli ECO5)
16 µg/mL: Peptide MIC values (E. coli; E. coli NCTC 10418) | MIC (E. faecium; E. faecium strain EFM002) | Peptide MIC values (S. aureus; S. aureus MRSA17) | Peptide MIC + Tobramycin (bacterial isolates; P. aeruginosa PA022) | Peptide MIC + Tobramycin ([2]; P. aeruginosa PA022)
30 µg/mL: Mupirocin MIC + Peptide (bacterial isolates; E. coli ECO5) | Mupirocin MIC + Peptide (bacterial isolates; E. coli SBECO2)
0.56: FIC (bacterial isolates; [9]) | FIC [2, 9]
32 µg/mL: MIC (E. coli; E. coli strain ECO002) | MIC (E. coli; E. coli strain SBECO3) | Peptide MIC values (E. coli; E. coli ESS) | Peptide MIC values (E. faecium) | Peptide MIC values (S. aureus; S. aureus SA206) | Peptide MIC + Tobramycin (bacterial isolates; A. baumannii ABI001) | Peptide MIC + Tobramycin ([2]; A. baumannii ABI001)

ILKKWPWWPWRK [MBI 11B4CN]
30 µg/mL: Mupirocin MIC + Peptide (bacterial isolates; E. coli SBECO1) | Mupirocin MIC + Peptide (bacterial isolates; E. coli SBECO2)
16 µg/mL: MIC (E. coli; E. coli strain ECO003) | MIC (E. faecalis; E. faecalis strain EFS002) | Peptide MIC values (S. aureus; S. aureus SA206) | Peptide MIC Alone ([1]; E. coli, Mupirocin section)
>128 µg/mL: MIC (A. calcoaceticus; A. calcoaceticus strain AC001) | MIC (E. cloacae; E. cloacae strain ECL007) | MIC (H. influenzae; H. influenzae strain HIN002) | MIC (P. aeruginosa; P. aeruginosa strain PA006) | Peptide MIC values (P. aeruginosa; P. aeruginosa ATCC 27853) | Peptide MIC values (P. aeruginosa; P. aeruginosa NCTC 10662) | Peptide MIC values (P. vulgaris) | MIC (S. marcescens; S. marcescens strain SBSM2) | MIC (S. marcescens; S. marcescens strain SMS004) | Peptide MIC values (S. marcescens; S. marcescens SM76) | Peptide MIC values (S. marcescens; S. marcescens SM82) | Peptide MIC values (S. pneumoniae; S. pneumoniae 60120)
64 µg/mL: MIC (S. maltophilia; S. maltophilia strain SMA002) | Peptide MIC values (S. pneumoniae; S. pneumoniae ATCC 49619)
128 µg/mL: MIC (K. pneumoniae; K. pneumoniae strain KP002) | MIC (S. pneumoniae) | Peptide MIC values (S. pneumoniae; S. pneumoniae 406LE8)
0.09: FIC (bacterial isolates; [7])
1 µg/mL: Peptide MIC values (S. aureus; S. aureus ATCC 29213)
2 µg/mL: MIC (S. aureus; S. aureus strain SA004) | Peptide MIC + Mupirocin (bacterial isolates; E. coli SBECO2)
32 µg/mL: Peptide MIC values (E. coli; E. coli ATCC 25922) | Peptide MIC values (S. aureus; S. aureus MRSA13) | Peptide MIC Alone (bacterial isolates; [4])
8 µg/mL: Peptide MIC values (E. coli; E. coli ESS) | Peptide MIC values (E. coli; E. coli NCTC 10418) | Peptide MIC values (E. faecium) | Peptide MIC values (S. aureus; S. aureus MRSA17) | Peptide MIC Alone (bacterial isolates; E. coli SBECO1, Mupirocin section) | Peptide MIC + Mupirocin ([1]; E. coli)
0.53: FIC ([1]; peptide + Mupirocin, E. coli)
4 µg/mL: Peptide MIC values (S. aureus; S. aureus MRSA9) | MIC (S. epidermidis)
0.36: FIC (bacterial isolates; peptide + Mupirocin, E. coli SBECO1)
0.5 µg/mL: Peptide MIC + Mupirocin (bacterial isolates; E. coli SBECO1)

ILRWVWWVWRRK [MBI 11F4CN]
0.125 µg/mL: Peptide MIC + Piperacillin (bacterial isolates; H. influenzae SB1)
>128 µg/mL: MIC (H. influenzae; H. influenzae strain HIN003) | MIC (S. marcescens; S. marcescens strain SBSM1) | MIC (S. pneumoniae) | Peptide MIC Alone (bacterial isolates; H. influenzae SB1, Piperacillin section) | Peptide MIC Alone (bacterial isolates; [14]) | Peptide MIC Alone ([2]; H. influenzae 1, Piperacillin section) | Peptide MIC Alone [2, 14]
0.38: FIC (bacterial isolates; [16]) | FIC [2, 16]
0.08: FIC [2, 19]
32 µg/mL: MIC, Peptide (P. aeruginosa; P. aeruginosa PA004, unmodified parent peptide) | MIC (P. aeruginosa; P. aeruginosa strain PA020) | MIC (S. pyogenes) | Piperacillin MIC + Peptide (bacterial isolates; S. maltophilia 2)
1 µg/mL: MIC (S. aureus; S. aureus strain SA007)
8 µg/mL: MIC, Peptide (E. coli; E. coli ECO005, unmodified parent peptide) | MIC (E. coli; E. coli strain ECO001) | MIC (E. faecalis; E. faecalis strain EFS004) | MIC (K. pneumoniae; K. pneumoniae strain KP001) | Peptide MIC + Piperacillin (bacterial isolates; E. cloacae 10) | Peptide MIC + Piperacillin (bacterial isolates; P. aeruginosa 7) | Peptide MIC + Piperacillin ([2]; E. cloacae 10) | Peptide MIC + Piperacillin ([2]; P. aeruginosa 7)
0.52: FIC (bacterial isolates; [15]) | FIC [2, 15]
0.75: FIC ([2]; peptide + Piperacillin, H. influenzae 1)
4 µg/mL: MIC, Peptide (A. calcoaceticus; A. calcoaceticus AC002, unmodified parent peptide) | MIC, Peptide (K. pneumoniae; K. pneumoniae KP001, unmodified parent peptide) | Piperacillin MIC + Peptide (bacterial isolates; E. cloacae 10) | Piperacillin MIC + Peptide (bacterial isolates; S. aureus 19 MRSA) | Peptide MIC Alone (bacterial isolates; S. aureus 19 MRSA, Piperacillin section) | Peptide MIC Alone ([1]; S. aureus MRSA, Piperacillin section) | Piperacillin MIC + Peptide ([2]; E. cloacae 10) | Peptide MIC + Piperacillin ([2]; P. aeruginosa 23) | Peptide MIC + Piperacillin ([2]; S. maltophilia 2) | Peptide MIC + Piperacillin ([2]; S. marcescens 1)
2 µg/mL: MIC, Peptide (E. faecalis; E. faecalis EFS008, unmodified parent peptide) | MIC, Peptide (S. aureus; S. aureus SA014, unmodified parent peptide) | MIC (S. epidermidis) | Peptide MIC + Piperacillin (bacterial isolates; S. aureus 19 MRSA) | Peptide MIC + Piperacillin ([1]; S. aureus MRSA)
16 µg/mL: MIC (A. calcoaceticus; A. calcoaceticus strain AC003) | MIC (E. cloacae; E. cloacae strain ECL006) | MIC, Peptide (S. maltophilia; S. maltophilia SMA002, unmodified parent peptide) | MIC (S. maltophilia; S. maltophilia strain SMA006) | Peptide MIC Alone (bacterial isolates; [10]) | Peptide MIC Alone (bacterial isolates; [13]) | Peptide MIC Alone [2, 10] | Piperacillin MIC + Peptide ([2]; H. influenzae 1) | Piperacillin MIC + Peptide ([2]; S. maltophilia 2) | Peptide MIC Alone [2, 13] | Piperacillin MIC + Peptide ([2]; S. marcescens 1)
0.5 µg/mL: Peptide MIC + Piperacillin (bacterial isolates; S. maltophilia 2) | Peptide MIC + Piperacillin (bacterial isolates; S. marcescens 1)
0.25: FIC (bacterial isolates; [19])
0.50: FIC (bacterial isolates; peptide + Piperacillin, H. influenzae SB1) | FIC [2, 18]
0.25 µg/mL: Piperacillin MIC + Peptide (bacterial isolates; H. influenzae SB1)
64 µg/mL: Piperacillin MIC + Peptide (bacterial isolates; P. aeruginosa 7) | Peptide MIC Alone (bacterial isolates; [11]) | Piperacillin MIC + Peptide (bacterial isolates; P. aeruginosa 23) | Peptide MIC Alone (bacterial isolates; [12]) | Piperacillin MIC + Peptide (bacterial isolates; S. marcescens 1) | Peptide MIC + Piperacillin ([2]; H. influenzae 1) | Piperacillin MIC + Peptide ([2]; P. aeruginosa 7) | Peptide MIC Alone [2, 11] | Piperacillin MIC + Peptide ([2]; P. aeruginosa 23) | Peptide MIC Alone [2, 12]
0.53: FIC (bacterial isolates; peptide + Piperacillin, S. aureus 19 MRSA) | FIC (bacterial isolates; [18]) | FIC ([1]; peptide + Piperacillin, S. aureus MRSA)
0.31: FIC (bacterial isolates; [17]) | FIC [2, 17]
